In patent publication US20230076977A1, “UTROPHIN UPREGULATION COMPOUNDS FOR DUCHENNE MUSCULAR DYSTROPHY THERAPY” (THE TRUSTEES OF THE UNIVERSITY OF PENNSYLVANIA, priority 2020, published 2023):
Like-named read-outs stand apart in the source and are kept apart here. Starred links: 1 amine or outer side, 2 acyl side, 3 side chain; linkers in the order of their positions; H or OH if unused. Positions of bridges follow the written chain, without caps; N, C: chain ends. Non-standard residues stand in square brackets, D forms with d. Residues, ends and D or L forms follow the SMILES beside them. Chains are numbered I, II in the order given. Hexamethylenediamine = C(CCCN[*:2])CCN[*:1]; Dip = N[C@H](C(=O)O)C(c1ccccc1)c1ccccc1; Chg = N[C@H](C(=O)O)C1CCCCC1; NMeA = CN[C@@H](C)C(=O)O

Tests used:
Assay type in all cases: cell-based
[1] = test system: 5′- and 3′-UTRs of human utrophin; assay: Screening assay: C2C12 stable reporter line, CMV-driven luciferase flanked by utrophin 5′ and 3′ UTRs; details: for Upper-lower limits scoren: difference between upper and lower boundaries of the fitted dose-response screening curve; for Fold diff: fold difference between the EC50s of screening and counterscreening
Protocol: (§1) The construct for the HTS assay was generated by cloning the 5′- and 3′-UTRs of human utrophin into pGL4:50-hygro (Promega, Madison, Wis.) at the 5′ and 3′ of the luciferase coding sequence and has been described previously by Moorwood. […] For the counterscreening assay, the pGL4:50-hygro plasmid was used alone. Low passage C2C12 cells obtained from ATCC were transfected with either constructs, stably selected with 500 μg/mL hygromycin and subcloned using two rounds of serial dilutions to isolate single cell-derived colonies in a 96 wells plate format. […] The selected clones were cultured in presence of 100 μg/mL hygromycin B and were transferred to the HTS Facility at the University of Pennsylvania for implementation into a 384-wells format suitable for HTS.
(§2) The construct for generating the screening C2C12 cell line carrying the 5′ and 3′UTR of the human utrophin gene is described by Moorwood. […] Some compounds could increase light emission independently from the 5′ and 3′UTR regions, i.e., by activating the CMV promoter or increasing overall mRNA synthesis. Therefore, in order to distinguish such compounds, a counterscreening cell line stably expressing only the CMV-driven luciferase gene was generated (FIG. 1A). To determine optimal conditions for the implementation in a 384-wells high-throughput format, evaluated were DMSO tolerance, optimal cell density and incubation time (FIG. 5A-5C).
(§3) A first criterion for evaluating the performance of the selected hits was whether their activity was dose-dependent. After performing a dose-response analysis (5 nM to 10 μM) of each hit in the screening cell line, a clustering approach was applied (complete linkage with Euclidean distance measurement) to highlight similarities between compounds profiles. […] By modeling each dose-response trace with a 4-parameter logistic model applied to the Z— score values (FIG. 2B), the EC50 of each molecule was calculated.
(§4) Cells were allowed to attach overnight at 37° C., 5% CO2 in a humidified chamber. […] Compounds were added to a final concentration of 1 μM and 100 nM in 0.2% DMSO. Columns 1 and 23 were treated with 0.2% DMSO (negative control). Columns 2 and 24 were treated with 100 nM Panobinostat (positive control). Cells were incubated for 24 hours at 37° C., 5% CO2. […] Luminescence was measured on an EnVisionXcite Multilabel Plate Reader (PerkinElmer), using ultrasensitive luminescence measurement technology.

[2] = test system: utrophin protein in C2C12 cells; assay: Utrophin western blot in C2C12 cells (endogenous protein expression); details: for Utrophin protein levels, fold increase: 1 μM, 24 hours, normalized to tubulin, vs 0.1% DMSO control; for utrophin protein levels in a separate assay (data not shown): hits with H2LPS equal to 0
Protocol: The 10 highest scoring hits were selected from this subset for performing in vitro validation. C2C12 cells were treated with 1 μM concentrations of the selected hits for 24 hours, followed by western blot evaluation of utrophin levels as an orthogonal assay for endogenous protein expression. […] Panobinostat, an FDA-approved non-selective HDAC inhibitor for cancer treatment, increased utrophin levels by 1.9-fold. […] AR-42 (S2244), another HDAC inhibitor with proven preclinical efficacy in contrasting cancer-induced cachexia, increased utrophin by 2.3-fold and had the second highest H2LPS. Consistent with the calculated HPS, the highest scoring hit, TSA (S1045), had also the highest magnitude of protein upregulation (3.9-fold) followed by PCI-24781 (S1090; 3.7-fold). Importantly, high H2LPS was generally correlated with confirmation in WB assays (FIG. 2E).
Total RNA was extracted from TA muscle samples with RNAeasy kit (Qiagen, USA) and reverse transcribed with random hexamers. qPCR was performed using Taqman probes for Utrophin (Assay ID Mm01168846_ml) and β-actin. Muscle tissue samples were lysed with TNEC buffer (50 mM Tris-HCl, pH 8.0; 150 mMNaCl; 1% NP40; 2 mM EDTA) buffer containing complete protease inhibitor cocktail (Roche, Basel, Switzerland). C2C12 cells were treated for 24 h with 1 μM concentrations of compounds from a fresh batch (3 wells for each compound), and cell samples were lysed with RIPA buffer with protease inhibitor cocktail. The experiment was repeated three independent times. 50-75 μg of total proteins from muscle tissues, or 4 μg of cell protein extracts, were resolved on a 3-8% Tris-Acetate gradient gel (NuPage; Invitrogen), transferred to PDVF or nitrocellulose membranes and mouse monoclonal anti-utrophin antibody MANCHO3 clone 8A4 (developed by Glenn E. Morris and obtained from the Developmental Studies Hybridoma Bank, Iowa) or a custom-made anti-UtrophinA rabbit polyclonal antibody (muscle tissue samples) generated and described previously by Chakkalakal et al., Nucleic Acids Res. 36, 826-838 (2008), which is incorporated herein by reference in its entirety.
TSA is a broad-spectrum HDAC inhibitor. […] To further validate in vitro the dose-dependent capacity of TSA to upregulate utrophin protein, C2C12 cells were treated for 24 hours with increasing concentrations of TSA (from 1 nM to 10 μM) (FIG. 3B). Consistent with the single-dose western blot validation experiments, utrophin protein levels were increased 4.3 times by 1 μM TSA. […] Some cytotoxicity was evident for TSA concentrations higher than 1 μM.

[3] = test system: CMV-driven luciferase gene; assay: Counterscreening assay: C2C12 line stably expressing only the CMV-driven luciferase gene; details: for luciferase activity in the counterscreening assay: dose-response 5 nM to 10 μM, FIG. 6
Protocol: as §1, §2, §3, §4

[4] = C2C12, 4-parameter logistic fit of Z-scores, 24 h, no unit in table (0.013 = 13 nM), read-out: EC50 screen
[5] = C2C12, read-out: EC50 score (1 to 4)
[6] = 4-parameter logistic fit of Z-scores, 24 h, no unit in table (0.013 = 13 nM), read-out: EC50 screen

Row | Molecule | EC50 [1, 4] [nM] | EC50 [1, 5] [nM] | Upper-lower limits scoren [1] | Fold diff [1] | further results
1 | CC(C)[C@H](C(=O)Nc1ccc(C(=O)NO)cc1)c1ccccc1 [AR-42] | 369 | 100 to 1000 | 59.94 | 14.72 | Utrophin protein levels, fold increase [2]: 2.3 fold
2 | CC(=O)O/N=C1/C(=C2/C(=O)Nc3cc(Br)ccc32)Nc2ccccc21 [BIO-acetoxime] | – | – | 13.04 | 0.65 | EC50 [1, 6]: 330 nM
3 | O=C1Nc2cc(Br)ccc2/C1=C1/Nc2ccccc2/C1=N\O [BIO] | – | – | 12 | – | –
4 | CN[C@@H](C)C(=O)N[C@H](C(=O)N1CCC[C@H]1C(=O)N[C@H](C(=O)NCCCCCCNC(=O)[C@@H](NC(=O)[C@@H]1CCCN1C(=O)[C@@H](NC(=O)[C@H](C)NC)C1CCCCC1)C(c1ccccc1)c1ccccc1)C(c1ccccc1)c1ccccc1)C1CCCCC1 [BV-6] (I: H-[NMeA][Chg]P[Dip] / II: H-[NMeA][Chg]P[Dip]; linker I:C-II:C via Hexamethylenediamine) | – | – | 7.00 | High | EC50 [1, 6]: 99 nM
5 | O=C(/C=C/c1cccc(S(=O)(=O)Nc2ccccc2)c1)NO [Belinostat] | 342 | 100 to 1000 | 43.41 | High | –
6 | C#Cc1cccc(Nc2ncnc3cc(OC)c(OCCCCCCC(=O)NO)cc23)c1 [CUDC-101] | 1990 | > 1000 | 34.34 | High | –
7 | COc1ccc(-c2nc(N3CCOCC3)c3sc(CN(C)c4ncc(C(=O)NO)cn4)cc3n2)cn1 [CUDC-907] | – | < 50 | – | – | luciferase activity in the counterscreening assay [3]: significant luciferase activity
8 | CCN(CC)Cc1ccc2cc(COC(=O)Nc3ccc(C(=O)NO)cc3)ccc2c1 [Givinostat] | 269 | 100 to 1000 | 46.59 | 18.69 | Utrophin protein levels, fold increase [2]: 2.2 fold
9 | O=C1Cc2c([nH]c3ccc(Br)cc23)-c2ccccc2N1 [Kenpaullone] | 34 | < 50 | 12.92 | 6.97 | –
10 | O=C(/C=C/c1ccc(CN(CCO)CCc2c[nH]c3ccccc23)cc1)NO [LAQ824, Dacinostat] | – | – | – | – | utrophin protein levels in a separate assay (data not shown) [2]: failed to increase utrophin protein levels
11 | Cc1cc(C)cc(C(=O)NOCCCCCC(=O)NO)c1 [LMK-235] | 683 | 100 to 1000 | 43.40 | High | –
12 | CN(C)c1ccc(C(=O)NCCCCCCC(=O)NO)cc1 [M344] | – | – | 74.15 | 2.54 | EC50 [1, 6]: 3220 nM
13 | Cc1cc(O)c(-c2ccc([C@@H](C)CN)cc2)c2c1[nH]c(=O)c1sccc12.Cl [OTS514 hydrochloride] | – | – | – | – | utrophin protein levels in a separate assay (data not shown) [2]: failed to increase utrophin protein levels
14 | CCCCc1nc2cc(/C=C/C(=O)NO)ccc2n1CCN(CC)CC [Pracinostat] | 558 | 100 to 1000 | 56.37 | 59.25 | –
15 | Cn1cc(CNCC2CCN(c3ncc(C(=O)NO)cn3)CC2)c2ccccc21 [Quisinostat] | – | – | – | – | utrophin protein levels in a separate assay (data not shown) [2]: failed to increase utrophin protein levels
16 | O=C(CCCCCN1C(=O)c2cccc3cccc(c23)C1=O)NO [Scriptaid] | 2440 | > 1000 | 62.01 | High | –
17 | CC(C)Oc1ccc2c(=O)c(-c3ccccc3)coc2c1 [ipriflavone] | – | < 50 | – | – | –
18 | Abexinostat [PCI-24781] | – | – | 44.18 | 33.72 | EC50 [1, 6]: 138 nM; Utrophin protein levels, fold increase [2]: 3.7 fold
19 | Panobinostat | – | – | 22.06 | 9.21 | EC50 [1, 6]: 13 nM; increase of signal activity over basal signal, primary screening ([1]; FIG. 8, Panobinostat-treated vs untreated stable C2C12 cells): 4-6 fold; signal (S), primary screening ([1]; FIG. 8, basal about 20,000 RLUs): about 100,000 RLUs; activity in library screen (threshold 22.07% NPAc) ([1]; screened at 0.1 μM and 1 μM, 24 h): active at both concentrations; Utrophin protein levels, fold increase [2]: 1.9 fold; increase over the basal signal, counterscreening ([3]; FIG. 8, Panobinostat-treated vs untreated): 100 fold; signal (S), counterscreening ([3]; FIG. 8, basal about 400 RLUs): 25-40,000 RLUs; luciferase activity in the counterscreening assay [3]: significant luciferase activity
